{"source": "patent US20090298895A1", "about": "“USE OF THIOPROLINE IN BODY WEIGHT REDUCTION TREATMENTS” (Universidad De Cadiz, priority 2006, published 2009)", "assay_type_in_all_cases": "in vivo", "key": {"[1]": {"system": "CD-1 Swiss/UCàdiz mice", "test": "Survival of thioproline-supplemented mice", "details": "for Mean life span / Maximum life expectancy: supplemented mice n=70; for Mean life span: control 62±4 weeks; for Maximum life expectancy: control 118±4 weeks", "excerpt": "(§1) The mice strain used in this study, CD-1 Swiss/UCàdiz, is a type of mice with accelerated senescence similar to the AKR, SAM, NZB/Lac, and SJL/J mice having a mean life span of 36-57 weeks and a maximum life expectancy of 52-83 weeks. These mice have been used in the Universidad de Càdiz in several survival studies (Navarro A, Gomez C, Sanchez-Pino M J, Gonzalez H. Bandez M J, Boveris A D and Boveris A. Vitamin E at high doses improves survival, neurological performance, and brain mitochondrial function in aging male mice. Am J Physiol Regul Integr Comp Physiol 289: R1392-R1399, 2005; Navarro A, Gomez C, Lopez-Cepero J M and Boveris A. Beneficial effects of moderate exercise on mice aging: survival, behavior, oxidative stress, and mitochondrial electron transfer. Am J Physiol Regul Integr Comp Physiol 286: R505-R511, 2004; Navarro A, Sanchez Del Pino M J, Gomez C, Peralta J L and Boveris A. Behavioral dysfunction, brain oxidative stress, and impaired mitochondrial electron transfer in aging mice. Am J Physiol Regul Integr Comp Physiol 282: R985-R992, 2002).\n(§2) The control group received standard laboratory animal food (A04 diet, Panlab LS, Barcelona, Spain), whereas the l-thioproline-supplemented mice received the same food as the mice in the control group, but supplemented with 2.0 g of l-thioproline (Sigma Aldrich)/kg of food from 28 weeks of age and until the end of their lives.\nThe date on which each mouse died (Example 1) was controlled to be able to obtain the survival curves."}, "[2]": {"system": "CD-1 Swiss/UCàdiz mice", "test": "Average daily food intake ad libitum", "details": "diet with 2.0 g l-thioproline/kg of food", "description": "To study the effect of thioproline, particularly of l-thioproline, on feeding behavior, CD-1 Swiss/UCàdiz mice bred in the Animal Experimentation department of the Universidad de Càdiz were used. The mice were stabled in groups of 5 animals at 22±2° C. with 12 h/12 h of light/dark cycles and with free access, ad libitum, to food and water. The control group received standard laboratory animal food (A04 diet, Panlab LS, Barcelona, Spain), whereas the l-thioproline-supplemented mice received the same food as the mice in the control group, but supplemented with 2.0 g of l-thioproline (Sigma Aldrich)/kg of food from 28 weeks of age and until the end of their lives. The food was weighed daily. The mice were weighed weekly, and it was periodically controlled that the animals were pathogen-free."}, "[3]": {"system": "CD-1 Swiss/UCàdiz mice", "test": "Neurological tests (tightrope test and T maze test)", "details": "once a week, FIG. 2A, 2B", "excerpt": "The animals of Example 1 were subjected to two tests once a week to evaluate neurological capacities, specifically to the tightrope test and the T maze test. The assayed animals were the animals mentioned in Example 1, i.e. the group of control mice and the group of mice with an l-thioproline-supplemented diet according to the treatment described in the Example 1. This test allows evaluating neuromuscular coordination. The mice were suspended in the center of a 60 cm wide tightrope and the time it took them to reach one of the columns located at the end of the rope was measured. The test was considered positive when the animal reached one of the ends in less than 60 seconds. This test measures spontaneous cognitive neurological activity. The mice were placed in a T maze with 50 cm arms, and the test was considered successful when the mice reached the intersection in less than 60 seconds."}, "[4]": {"system": "CD-1 Swiss/UCàdiz mice", "test": "Body weight of mice on l-thioproline-supplemented diet", "set-up": "Variation: percentage reduction in weight between supplemented mice and control mice: concentration or dose not given beside the values", "details": "for Average weight: average ± SEM", "excerpt": "To study the effect of thioproline, particularly of l-thioproline, on feeding behavior, CD-1 Swiss/UCàdiz mice bred in the Animal Experimentation department of the Universidad de Càdiz were used.\nas §1\nThe mice were stabled in groups of 5 animals at 22±2° C. with 12 h/12 h of light/dark cycles and with free access, ad libitum, to food and water.\nas §2\nThe food was weighed daily. The mice were weighed weekly, and it was periodically controlled that the animals were pathogen-free."}}, "data": [{"smiles": "O=C(O)C1CSCN1", "note": "(stereo not drawn) [l-thioproline, thiazolidine-4-carboxylic acid]", "values": [{"measurement": "Prolongation of mean life span versus control", "setting": "[1]; from 62 weeks to 80 weeks", "value": "approximately 29%"}, {"measurement": "Prolongation of maximum life versus control", "setting": "[1]; from 118 weeks to 145 weeks", "value": "approximately 23%"}, {"measurement": "Mean life span", "setting": "[1]", "value": 80, "unit": "weeks"}, {"measurement": "Mean life span", "setting": "[1]; listed as thioproline", "value": "80±3", "unit": "weeks"}, {"measurement": "Maximum life expectancy", "setting": "[1]", "value": 145, "unit": "weeks"}, {"measurement": "Maximum life expectancy", "setting": "[1]; listed as thioproline", "value": "145±3", "unit": "weeks"}, {"measurement": "Spontaneous reduction of the intake versus control mice", "setting": "[2]", "value": "approximately 20%"}, {"measurement": "Average daily intake ad libitum", "setting": "[2]; control 6.3±0.03 g/day", "value": "5.1 ± 0.03", "unit": "g/day"}, {"measurement": "Improvement in the neurological tests compared to control group", "setting": "[3]", "value": "17-39%"}, {"measurement": "Weight increase versus control group", "setting": "[4]; after 12 weeks of l-thioproline-supplemented diet, FIG. 1", "value": "smaller weight increase than the increase observed in the control group"}, {"measurement": "Variation: percentage reduction in weight between supplemented mice and control mice", "setting": "[4]; age 28 weeks", "value": 2.06, "unit": "%"}, {"measurement": "Average weight", "setting": "[4]; age 28 weeks (start of supplementation), diet with 2.0 g l-thioproline/kg of food", "value": "42.7 ± 0.4", "unit": "g"}, {"measurement": "Variation: percentage reduction in weight between supplemented mice and control mice", "setting": "[4]; age 52 weeks", "value": 4.45, "unit": "%"}, {"measurement": "Average weight", "setting": "[4]; age 52 weeks, diet with 2.0 g l-thioproline/kg of food from 28 weeks of age", "value": "47.2 ± 0.4", "unit": "g"}, {"measurement": "Variation: percentage reduction in weight between supplemented mice and control mice", "setting": "[4]; age 78 weeks", "value": 11.65, "unit": "%"}, {"measurement": "Average weight", "setting": "[4]; age 78 weeks, diet with 2.0 g l-thioproline/kg of food from 28 weeks of age", "value": "48.5 ± 0.5", "unit": "g"}, {"measurement": "Variation: percentage reduction in weight between supplemented mice and control mice", "setting": "[4]; age 100 weeks", "value": 10.18, "unit": "%"}, {"measurement": "Average weight", "setting": "[4]; age 100 weeks, diet with 2.0 g l-thioproline/kg of food from 28 weeks of age", "value": "49.4 ± 0.5", "unit": "g"}]}]}
